This series in a line: xn = mol fraction of the nth substance listed. To be noted: 298.15 K, 100 kPa.

SMILES strings stand for the structures.

What is called viscosity is the internal friction of a fluid under shear. Low readings indicate a thin fluid, high ones a thick fluid.

`CCCC[n+]1ccn(C)c1.F[B-](F)(F)F` + CC1COC(=O)O1 registered a viscosity (x1 = 1) of 107.2 mPa·s.

Consider `CC1COC(=O)O1` (stereo unspecified) + CCCC[n+]1ccn(C)c1.F[B-](F)(F)F, for which the viscosity was determined as 2.7 mPa·s (x2 = 0); 3.6 mPa·s (x2 = 0.05); 4.4 mPa·s (x2 = 0.1); 10 mPa·s (x2 = 0.3); 15 mPa·s (x2 = 0.4); 22 mPa·s (x2 = 0.5). The viscosity by setting is: (x2 = 0.6) 31.4 mPa·s; (x2 = 0.7) 44.5 mPa·s; (x2 = 0.8) 63.5 mPa·s; (x2 = 0.9) 81.3 mPa·s.

For the origin of these results see a compilation of properties of binary mixtures (doi:10.1016/j.molliq.2021.117163).
